{"source": "patent US8765123B1", "about": "“Compositions and methods for the treatment and prevention of infections caused by Staphylococcus aureus bacteria” (Rutgers, The State University of New Jersey, priority 2007, dated 2014)", "format_in_all_cases": "cell-based, Staphylococcus aureus", "key": {"[1]": {"test_system": "S. aureus Strain SH1000 biofilms", "assay": "Detachment of pre-formed S. aureus biofilms in microtiter plate wells, crystal violet staining", "procedure": "(§1) S. aureus Strain SH1000 (Horsburgh et al., 2002. J. Bacteriol. 184:5457-5467) was used in all of the following examples. The bacteria were passaged weekly on blood agar and stored at 4° C. Biofilms were cultured in Tryptic Soy broth (Becton-Dickinson, Sparks, Md.) containing 6 g of yeast extract and 8 g of glucose per liter (TSB medium). All cultures were incubated at 37° C.\nA biofilm formation assay was carried out as follows. A loopful of cells from an agar plate was transferred to a polypropylene microcentrifuge tube containing 200 μl of TSB medium. The cells were crushed with a disposable pellet pestle, vortexed for 30 sec, diluted to 1 ml in fresh TSB medium, and then passed through a 5-μm pore-size syringe filter to remove large clumps of cells as previously described (Kaplan & Fine, 2002. Appl. Environ. Microbiol. 68:4943-4950). Filtered cells were diluted to 10^3-10^5 CFU/ml in TSB medium. Aliquots of cells (200 μl each) were transferred to the wells of a 96-well tissue-culture-treated polystyrene microtiter plate (Falcon no. 324662, Becton-Dickinson) and the plate was incubated for 24 h. The biofilms were rinsed once with water and then treated with 200 μl of deoxyribonuclease I (bovine deoxyribonuclease I, purchased from Sigma Chemical Company) at 100 μg/ml in 150 mM NaCl, 1 mM CaCl2. Control biofilms were treated with 200 μl of 150 mM NaCl, 1 mM CaCl2 alone. After 10 min at 37° C., biofilms were rinsed with water and then dried. Biofilms were stained for 1 min with 200 μl of Gram's crystal violet stain (catalog no. 23255960, Fisher Scientific, Fair Lawn, N.J.) and then rinsed with water and dried.\nThe concentration of deoxyribonuclease I was 100 μg/ml and the treatment time was 10 min. In this case, the amount of biofilm biomass remaining in the well was quantitated by measuring the A595 of the crystal violet stained biomass as described above, and the percent of biofilm cell detachment was calculated using the formula: 1−(A595[buffer+deoxyribonuclease I]/A595[buffer alone])×100."}, "[2]": {"test_system": "SH1000 biofilms", "assay": "Biofilm formation in 96-well microtiter plates in supplemented TSB medium, crystal violet A595"}, "[3]": {"test_system": "S. aureus SH1000 cells", "assay": "Autoaggregation and biofilm formation in PET tubes with supplemented TSB medium", "details": "medium supplemented with 100 μg/ml, 16 h", "procedure": "as §1\nThese experiments were carried out as described above, except that biofilms were grown in 16-mm×100-mm PET tubes (2 ml culture vol) in a rotary shaker for 16 h."}, "[4]": {"test_system": "S. aureus biofilm cells", "assay": "Killing of biofilm cells in microplate wells, CFU/well enumeration", "details": "24-h biofilm; deoxyribonuclease I alone, 100 μg/ml for 10 min; FIG. 8", "experimental": "Biofilms were grown for 24 h in 96-well microtiter plates as described above. Biofilms were rinsed once with water and then treated with 200 μl of TSB medium containing 100 μg/ml of deoxyribonuclease I. Control wells were treated with 200 μl of TSB medium alone. […] Control wells received 20 μl of water. […] This reaction was carried out in 100 μg/ml in 150 mM NaCl, 1 mM CaCl2 as described above. After 10 min, cells were mixed and then serial dilutions were plated on agar. For S. aureus biofilms treated with deoxyribonuclease I, cells were mixed and then a 50-μl aliquot of cells was diluted in 50 ml of phosphate buffered saline. The cells were passed through an analytical test filter funnel (no. 145-2020; Nalgene, Rochester, N.Y.), and the filter was rinsed with 250 ml of sterile water, aseptically removed from the filter unit, and placed on a blood agar plate. Colonies were enumerated after 24 h."}}, "note": "Entries after “also recorded” stand apart in the source; their conditions may differ.", "data": [{"substance": "deoxyribonuclease I", "values": [{"measurement": "detachment of biofilm (crystal violet staining material remaining in the well)", "setting": "[1]; 24-h-old biofilm, 100 μg/ml, 10 min treatment, FIG. 1", "value": "significant detachment of the biofilm; also recorded: nearly complete detachment"}, {"measurement": "concentration dependence of biofilm detachment (Absorbance at 595 nm)", "setting": "[1]; 24-h-old biofilm, 10 min treatment, FIG. 2", "value": "dependent on the deoxyribonuclease I concentration"}, {"measurement": "detachment of biofilm (A595 of crystal violet)", "setting": "[1]; 24-h-old biofilm, concentrations between 0.1 and 10 μg/ml, 10 min, FIG. 2", "value": "partial detachment"}, {"measurement": "detachment of biofilm (A595 of crystal violet)", "setting": "[1]; 24-h-old biofilm, concentrations greater than 10 μg/ml, 10 min, FIG. 2", "value": "near complete detachment"}, {"measurement": "detachment of biofilm (A595 of crystal violet)", "setting": "[1]; 24-h-old biofilm, concentrations less than 0.1 μg/ml, 10 min, FIG. 2", "value": "little detachment"}, {"measurement": "detachment of biofilms of different age (percent of biofilm cell detachment from A595)", "setting": "[1]; biofilms grown for 5, 8, 12 or 24 h, 100 μg/ml, 10 min, FIG. 3", "value": "capable of detaching; also recorded: significant detachment of all of the S. aureus biofilms, regardless of their age"}, {"measurement": "inhibition of biofilm formation (A595 of crystal violet stained biomass), concentration dependence", "setting": "[2]; increasing concentrations in medium, FIG. 7", "value": "dependent on the deoxyribonuclease I concentration; also recorded: inhibited SH1000 biofilm formation in a dose-dependent manner"}, {"measurement": "biofilm colony morphology in microplate wells", "setting": "[2]; medium supplemented with 100 μg/ml, 24 h, FIG. 6", "value": "incapable of forming distinct biofilm colonies; also recorded: formed a dense film that uniformly covered the microwell surface, but which readily detached after gentle rinsing"}, {"measurement": "biofilm formation in tubes at the air-liquid interface (crystal violet staining)", "setting": "[3]; FIG. 5", "value": "much less biofilm formation; also recorded: inhibited biofilm formation at the air-liquid interface"}, {"measurement": "autoaggregation (clumping) of cells", "setting": "[3]; rotary shaker, FIG. 4", "value": "much less clumping; also recorded: formed smaller aggregates"}, {"measurement": "decrease in CFU/well values (killing of biofilm cells)", "setting": "[4]", "value": "resistant to killing; also recorded: did not exhibit a significant decrease"}]}]}
